Like-named read-outs stand apart in the source and are kept apart here. Numbered stars: 1 amine (or outer) side, 2 acyl side, 3 side chain; on linkers, the order of the positions; unused ones are H or OH. Square brackets hold non-standard residues; d marks the D form. Side chains are listed from the residue outwards. Peptide text beside a SMILES is read from it. * marks the point of attachment. γGlu = O=C(O)[C@H](CCC(=O)[*:2])N[*:1]; αMeF = C[C@](N)(Cc1ccccc1)C(=O)O; αMeK = C[C@](N)(CCCCN)C(=O)O; Lauroyl = CCCCCCCCCCCC(=O)*; αMeS = C[C@](N)(CO)C(=O)O; AEEA = NCCOCCOCC(=O)O; Aib = CC(C)(N)C(=O)O Some results are limits rather than exact numbers.

Results on six compounds are retold here after patent US10414811B2, “Protease-resistant lipidated GLP-1 analogs” (MEDIMMUNE LIMITED, priority 2015, dated 2019).

Format in all cases: cell-based
Experiment [1] concerns the target T1, human GLP-1 receptor (GLP-1R) (Homo sapiens, UniProt P43220).
T1 construct: expressed in transfected cells
In words: cAMP assay, human GLP-1R cells. Summed up:
(§1)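 Peptide-stimulated cAMP measured by two-step HTRF after a 30 min room-temperature incubation with receptor-expressing cells (hGLP-1R, hGIPR at 1×10^5 cells/ml; hGCGR at 2×10^5 cells/ml). Duplicate dilutions; EC50 from 4-parameter logistic fit of % Delta F.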
On the technique in general: Changes in cAMP serve as a functional read-out for many G protein-coupled receptors.

Experiment [2] addresses T2, human glucagon receptor (GCGR) (Homo sapiens, UniProt P47871).
T2 construct: expressed in transfected cells
In words: cAMP assay, human GCGR cells. Summed up:
as §1

Experiment [3] addresses T3, human glucose-dependent insulinotropic peptide receptor (GIPR) (Homo sapiens, UniProt P48546).
T3 construct: expressed in transfected cells
T3 sequence (P48546 22-466): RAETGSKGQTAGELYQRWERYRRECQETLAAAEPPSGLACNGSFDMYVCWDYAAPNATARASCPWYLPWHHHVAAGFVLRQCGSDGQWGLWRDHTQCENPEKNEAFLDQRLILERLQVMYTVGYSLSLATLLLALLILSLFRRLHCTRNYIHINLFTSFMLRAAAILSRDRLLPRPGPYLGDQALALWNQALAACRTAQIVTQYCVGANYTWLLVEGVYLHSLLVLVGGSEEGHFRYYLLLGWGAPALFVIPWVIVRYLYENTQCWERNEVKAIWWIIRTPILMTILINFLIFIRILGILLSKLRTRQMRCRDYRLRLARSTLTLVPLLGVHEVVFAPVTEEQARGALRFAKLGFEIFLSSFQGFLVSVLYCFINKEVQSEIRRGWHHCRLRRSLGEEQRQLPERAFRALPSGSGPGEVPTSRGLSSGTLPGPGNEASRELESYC
Put plainly: cAMP assay, human GIPR cells. In outline: as §1

The mark [4] stands for this setting: tris-lipidated peptides, mean of n1 and n2, read-out: Primary assay EC50 Mean pM GLP-1R.
The mark [5] stands for this setting: tris-lipidated peptides, replicate n1, read-out: Primary assay EC50 GLP-1R n1.
Setting [6] is: tris-lipidated peptides, replicate n2, read-out: Primary assay EC50 GLP-1R n2.
Setting [7] is: tris-lipidated peptides, first replicate, read-out: Primary assay EC50 GIP-R (n1).
[8] abbreviates: cAMP assay, first determination (n1), read-out: Primary assay EC50 GLP-1R n1.
[9] abbreviates: cAMP assay, second determination (n2), read-out: Primary assay EC50 GLP-1R n2.
[10] abbreviates: mean of n1 and n2, read-out: Mean pM GLP-1R.
Where [11] appears, read: cAMP assay, first determination (n1), read-out: Primary assay EC50 Gluc-R (n1).
Setting [12] is: cAMP assay, second determination (n2), read-out: Primary assay EC50 Gluc-R (n2).
The mark [13] stands for this setting: cAMP assay, first determination (n1), read-out: Primary assay EC50 GIP-R (n1).
Setting [14] is: cAMP assay, second determination (n2), read-out: Primary assay EC50 GIP-R (n2).

T2 sequence (P47871 26-477): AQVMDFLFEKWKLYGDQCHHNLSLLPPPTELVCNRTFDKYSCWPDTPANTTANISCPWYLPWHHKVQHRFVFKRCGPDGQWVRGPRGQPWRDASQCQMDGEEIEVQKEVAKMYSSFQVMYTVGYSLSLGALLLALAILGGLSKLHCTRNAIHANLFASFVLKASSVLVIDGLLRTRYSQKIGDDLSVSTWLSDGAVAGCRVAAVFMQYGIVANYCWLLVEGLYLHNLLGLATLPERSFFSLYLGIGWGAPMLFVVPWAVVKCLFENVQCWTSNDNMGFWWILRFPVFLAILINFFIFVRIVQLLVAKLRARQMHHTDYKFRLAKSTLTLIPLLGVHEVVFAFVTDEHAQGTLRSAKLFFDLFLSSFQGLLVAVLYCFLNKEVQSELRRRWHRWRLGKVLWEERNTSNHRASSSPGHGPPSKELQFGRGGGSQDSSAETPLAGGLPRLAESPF
T1 sequence (P43220 24-463): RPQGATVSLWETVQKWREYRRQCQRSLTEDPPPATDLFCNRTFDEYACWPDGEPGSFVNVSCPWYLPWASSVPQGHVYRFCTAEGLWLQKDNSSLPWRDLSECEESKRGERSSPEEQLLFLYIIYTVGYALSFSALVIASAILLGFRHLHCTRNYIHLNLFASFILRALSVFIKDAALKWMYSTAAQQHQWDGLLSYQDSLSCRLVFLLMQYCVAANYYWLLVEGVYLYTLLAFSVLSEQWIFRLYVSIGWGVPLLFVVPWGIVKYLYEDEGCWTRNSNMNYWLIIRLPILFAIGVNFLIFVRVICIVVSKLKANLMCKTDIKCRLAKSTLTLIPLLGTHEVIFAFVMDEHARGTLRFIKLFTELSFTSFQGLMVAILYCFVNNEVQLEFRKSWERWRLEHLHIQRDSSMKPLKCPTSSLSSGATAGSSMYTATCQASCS

Consider `CCCCCCCCCCCC(=O)N[C@@H](CCC(=O)NCCOCCOCC(=O)NCCOCCOCC(=O)NCCCC[C@H](NC(=O)CNC(=O)[C@H](CCC(=O)O)NC(=O)[C@H](CCCCNC(=O)COCCOCCNC(=O)COCCOCCNC(=O)CC[C@H](NC(=O)CCCCCCCCCCC)C(=O)O)NC(=O)[C@H](Cc1ccc(O)cc1)NC(=O)[C@H](CO)NC(=O)[C@](C)(CO)NC(=O)[C@@H](NC(=O)[C@H](CC(=O)O)NC(=O)[C@H](CO)NC(=O)[C@@H](NC(=O)[C@](C)(Cc1ccccc1)NC(=O)[C@H](CO)NC(=O)CNC(=O)[C@H](CCC(=O)O)NC(=O)C(C)(C)NC(=O)[C@@H](N)Cc1c[nH]cn1)[C@@H](C)O)C(C)C)C(=O)N[C@@H](C)C(=O)N[C@@H](C)C(=O)N[C@@](C)(CCCCN)C(=O)N[C@@H](CCC(=O)O)C(=O)N[C@@H](Cc1ccccc1)C(=O)N[C@H](C(=O)N[C@@H](C)C(=O)N[C@@H](CCCCNC(=O)COCCOCCNC(=O)COCCOCCNC(=O)CC[C@H](NC(=O)CCCCCCCCCCC)C(=O)O)C(=O)N[C@H](C(=O)N[C@H](C(=O)N[C@@H](CCC(=O)O)C(=O)NCC(=O)NCC(N)=O)C(C)C)C(C)C)[C@@H](C)CC)C(=O)O` [compound 468] (H-H[Aib]EGS[αMeF]TSDV[αMeS]SYK([AEEA-AEEA-γGlu-Lauroyl])EGK([AEEA-AEEA-γGlu-Lauroyl])AA[αMeK]EFIAK([AEEA-AEEA-γGlu-Lauroyl])VVEGG-NH2), for which the EC50 in experiment [1] (setting [4]) is 73.5 pM; in experiment [1] (setting [5]) it was 62.4 pM; in experiment [1] (setting [6]), 84.5 pM; in experiment [2] (tris-lipidated peptides, second replicate, read-out: Primary assay EC50 Gluc-R (n2)), 20 nM; in experiment [3] (setting [7]), 20 nM.
For the compound `CCCCCCCCCCCCCCCCCC(=O)N[C@@H](CCC(=O)N[C@@H](CCC(=O)N[C@@H](CCC(=O)NCCCC[C@H](NC(=O)[C@H](C)NC(=O)[C@H](C)NC(=O)[C@H](CCC(=O)O)NC(=O)CNC(=O)[C@H](CCC(=O)O)NC(=O)[C@H](CC(C)C)NC(=O)[C@](C)(Cc1ccccc1)NC(=O)[C@H](CO)NC(=O)[C@](C)(CO)NC(=O)[C@@H](NC(=O)[C@H](CC(=O)O)NC(=O)[C@H](CO)NC(=O)[C@@H](NC(=O)[C@](C)(Cc1ccccc1)NC(=O)[C@H](CO)NC(=O)CNC(=O)[C@H](CCC(=O)O)NC(=O)C(C)(C)NC(=O)[C@@H](N)Cc1c[nH]cn1)[C@@H](C)O)C(C)C)C(=O)N[C@@H](CCC(=O)O)C(=O)N[C@@](C)(Cc1ccccc1)C(=O)N[C@H](C(=O)N[C@@H](C)C(=O)N[C@@](C)(Cc1ccccc1)C(=O)N[C@H](C(=O)N[C@H](C(=O)N[C@@](C)(CCCCN)C(=O)NCC(=O)NCC(N)=O)C(C)C)C(C)C)[C@@H](C)CC)C(=O)O)C(=O)O)C(=O)O` [compound 148], the EC50 in experiment [1] (setting [8]) was 16 pM; in experiment [1] (setting [9]), 8.7 pM; in experiment [1] (setting [10]), 12.1 pM; in experiment [2] (setting [11]), no less than 26 nM; in experiment [2] (setting [12]) it was no less than 26 nM; in experiment [3] (setting [13]), no less than 26 nM. Moreover, the EC50 in experiment [3] (setting [14]) is no less than 26 nM.
Regarding `CC[C@H](C)[C@H](NC(=O)[C@](C)(Cc1ccccc1)NC(=O)[C@H](CCC(=O)O)NC(=O)[C@H](CCCCNC(=O)CC[C@H](NC(=O)CC[C@H](NC(=O)CCCCCCCCCCCOc1ccc(C(=O)O)cc1)C(=O)O)C(=O)O)NC(=O)[C@H](C)NC(=O)[C@H](C)NC(=O)[C@H](CCC(=O)O)NC(=O)CNC(=O)[C@H](CCC(=O)O)NC(=O)[C@H](CC(C)C)NC(=O)[C@](C)(Cc1ccccc1)NC(=O)[C@H](CO)NC(=O)[C@](C)(CO)NC(=O)[C@@H](NC(=O)[C@H](CC(=O)O)NC(=O)[C@H](CO)NC(=O)[C@@H](NC(=O)[C@](C)(Cc1ccccc1)NC(=O)[C@H](CO)NC(=O)CNC(=O)[C@H](CCC(=O)O)NC(=O)C(C)(C)NC(=O)[C@@H](N)Cc1c[nH]cn1)[C@@H](C)O)C(C)C)C(=O)N[C@@H](C)C(=O)N[C@@](C)(Cc1ccccc1)C(=O)N[C@H](C(=O)N[C@H](C(=O)N[C@@](C)(CCCCN)C(=O)NCC(=O)NCC(N)=O)C(C)C)C(C)C` [compound 138], the EC50 is 19 pM in experiment [1] (setting [8]); 15 pM in experiment [1] (setting [9]); 17.2 pM in experiment [1] (setting [10]); no less than 26 nM in experiment [2] (Primary assay EC50 Gluc-R (n1), cAMP assay, first determination (n1)); no less than 26 nM in experiment [2] (read-out: Primary assay EC50 Gluc-R (n2), cAMP assay, second determination (n2)); no less than 26 nM in experiment [3] (Primary assay EC50 GIP-R (n1), cAMP assay, first determination (n1)). In addition, in experiment [3] (read-out: Primary assay EC50 GIP-R (n2), cAMP assay, second determination (n2)), the EC50 was no less than 26 nM.
In the case of `CCCCCCCCCCCCCCCCCC(=O)NCCCCCC(=O)NCCCCCC(=O)NCCCC[C@H](NC(=O)[C@@H](NC(=O)[C@@H](NC(=O)[C@](C)(Cc1ccccc1)NC(=O)[C@H](C)NC(=O)[C@@H](NC(=O)[C@](C)(Cc1ccccc1)NC(=O)[C@H](CCC(=O)O)NC(=O)[C@](C)(CCCCN)NC(=O)[C@H](C)NC(=O)[C@H](C)NC(=O)[C@H](CCC(=O)O)NC(=O)CNC(=O)[C@H](CCC(=O)O)NC(=O)[C@H](CC(C)C)NC(=O)[C@](C)(Cc1ccccc1)NC(=O)[C@H](CO)NC(=O)[C@](C)(CO)NC(=O)[C@@H](NC(=O)[C@H](CC(=O)O)NC(=O)[C@H](CO)NC(=O)[C@@H](NC(=O)[C@](C)(Cc1ccccc1)NC(=O)[C@H](CO)NC(=O)CNC(=O)[C@H](CCC(=O)O)NC(=O)C(C)(C)NC(=O)[C@@H](N)Cc1c[nH]cn1)[C@@H](C)O)C(C)C)[C@@H](C)CC)C(C)C)C(C)C)C(=O)NCC(=O)NCC(N)=O` [compound 186], the EC50 in experiment [1] (setting [8]) is 130 pM; in experiment [1] (setting [9]) it was 50 pM; in experiment [1] (setting [10]), 87.5 pM; in experiment [2] (setting [11]) it was no less than 27 nM; in experiment [2] (setting [12]), no less than 27 nM; in experiment [3] (setting [13]), no less than 27 nM. For the same compound, the EC50 in experiment [3] (setting [14]) is no less than 27 nM.
`CCCCCCCCCCCCCCCCCC(=O)NCCCCCC(=O)NCCCCCC(=O)NCCCCCC(=O)NCCCC[C@H](NC(=O)[C@H](C)NC(=O)[C@H](C)NC(=O)[C@H](CCC(=O)O)NC(=O)CNC(=O)[C@H](CCC(=O)O)NC(=O)[C@H](CC(C)C)NC(=O)[C@](C)(Cc1ccccc1)NC(=O)[C@H](CO)NC(=O)[C@](C)(CO)NC(=O)[C@@H](NC(=O)[C@H](CC(=O)O)NC(=O)[C@H](CO)NC(=O)[C@@H](NC(=O)[C@](C)(Cc1ccccc1)NC(=O)[C@H](CO)NC(=O)CNC(=O)[C@H](CCC(=O)O)NC(=O)C(C)(C)NC(=O)[C@@H](N)Cc1c[nH]cn1)[C@@H](C)O)C(C)C)C(=O)N[C@@H](CCC(=O)O)C(=O)N[C@@](C)(Cc1ccccc1)C(=O)N[C@H](C(=O)N[C@@H](C)C(=O)N[C@@](C)(Cc1ccccc1)C(=O)N[C@H](C(=O)N[C@H](C(=O)N[C@@](C)(CCCCN)C(=O)NCC(=O)NCC(N)=O)C(C)C)C(C)C)[C@@H](C)CC` [compound 151]: the EC50 was 22 pM in experiment [1] (setting [8]); 15 pM in experiment [1] (setting [9]); 18.2 pM in experiment [1] (setting [10]); no less than 26 nM in experiment [2] (setting [11]); no less than 26 nM in experiment [2] (setting [12]); no less than 26 nM in experiment [3] (setting [13]). In addition, the EC50 in experiment [3] (setting [14]) was no less than 26 nM.
In the case of `CCCCCCCCCCCC(=O)N[C@@H](CCC(=O)NCCOCCOCC(=O)NCCOCCOCC(=O)NCCCC[C@H](NC(=O)[C@H](CCC(=O)O)NC(=O)[C@H](CCCCNC(=O)COCCOCCNC(=O)COCCOCCNC(=O)CC[C@H](NC(=O)CCCCCCCCCCC)C(=O)O)NC(=O)[C@H](Cc1ccc(O)cc1)NC(=O)[C@H](CO)NC(=O)[C@](C)(CO)NC(=O)[C@@H](NC(=O)[C@H](CC(=O)O)NC(=O)[C@H](CO)NC(=O)[C@@H](NC(=O)[C@](C)(Cc1ccccc1)NC(=O)[C@H](CO)NC(=O)CNC(=O)[C@H](CCC(=O)O)NC(=O)C(C)(C)NC(=O)[C@@H](N)Cc1c[nH]cn1)[C@@H](C)O)C(C)C)C(=O)N[C@@H](CCC(=O)O)C(=O)N[C@@H](C)C(=O)N[C@@H](C)C(=O)N[C@@](C)(CCCCN)C(=O)N[C@@H](CCC(=O)O)C(=O)N[C@@H](Cc1ccccc1)C(=O)N[C@H](C(=O)N[C@@H](CCCCNC(=O)COCCOCCNC(=O)COCCOCCNC(=O)CC[C@H](NC(=O)CCCCCCCCCCC)C(=O)O)C(=O)N[C@@H](Cc1ccccc1)C(=O)N[C@H](C(=O)N[C@H](C(=O)N[C@@H](CCC(=O)O)C(=O)NCC(=O)NCC(N)=O)C(C)C)C(C)C)[C@@H](C)CC)C(=O)O` [compound 451] (H-H[Aib]EGS[αMeF]TSDV[αMeS]SYK([AEEA-AEEA-γGlu-Lauroyl])EK([AEEA-AEEA-γGlu-Lauroyl])EAA[αMeK]EFIK([AEEA-AEEA-γGlu-Lauroyl])FVVEGG-NH2; N-terminus assumed), the EC50 in experiment [1] (setting [4]) was 93.4 pM; in experiment [1] (setting [5]), 28.8 pM; in experiment [1] (setting [6]) it was 158 pM; in experiment [2] (tris-lipidated peptides, first replicate, read-out: Primary assay EC50 Gluc-R (n1)) it was 19.7 nM; in experiment [3] (setting [7]), 19.7 nM.
